Consider 29 molecules from patent publication US11370763B2, “Compounds and compositions for treating conditions associated with NLRP activity” (Novartis AG, priority 2017, dated 2022).

Structures are written as SMILES. Where two headings read alike, the source gives them in different places. Some results are limits rather than exact numbers.

This test deals with IL-1β production in PMA-differentiated THP-1 cells. Nature of the test: IL-1β production in PMA-differentiated THP-1 cells stimulated with gramicidin (hTHP-1 assay containing 2% fetal bovine serum; Procedures 1-3). The class given is cell-based, human. The note with it: Homo sapiens, THP-1, hTHP-1 assay containing 2% fetal bovine serum, read-out: hTHP-1 IC50 (Average IC50 of compounds in hTHP-1 assay). The method in brief: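 THP-1 cells differentiated with PMA (20 ng/ml, 16-18 h), replated in 2% FBS RPMI (50,000 cells/well), preincubated 1 h with compound (top final 100 μM, 3-fold steps, 0.37% DMSO), then stimulated 2 h with gramicidin (5 μM). Supernatant IL-1β measured by HTRF.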

`CC(C)c1ccc(F)c(C(C)C)c1CC(=O)N=S(N)(=O)c1ccc2c(cnn2C)c1` (centres unmarked) [Example 90, N-(amino(1-methyl-1H-indazol-5-yl)(oxo)-λ^6-sulfaneylidene)-2-(3-fluoro-2,6-diisopropylphenyl)acetamide]: the concentration for half-maximal inhibition (IC50) (class symbols) fell in the range of 5 to 30 µM. Same read-out and setting: as for `CC(C)c1ccc(F)c(C(C)C)c1CC(=O)N=S(N)(=O)c1ccc(CN(C)C)cn1` (centres unmarked) [Example 91, N-(amino(5-((dimethylamino)methyl)pyridin-2-yl)(oxo)-λ^6-sulfaneylidene)-2-(3-fluoro-2,6-diisopropylphenyl)acetamide], the figure is 5 to 30 µM. `CC(C)c1cncc(C(C)C)c1CC(=O)NS(=O)(=O)c1sc(C(C)(C)O)nc1CO` [Example 92, 2-(3,5-diisopropylpyridin-4-yl)-N-((4-(hydroxymethyl)-2-(2-hydroxypropan-2-yl)thiazol-5-yl)sulfonyl)acetamide]: where the note is “given as numeric bound”, the half-inhibitory concentration (IC50) is greater than 30 µM. The same measure, in the same setting: next, `CC(C)c1cc(C2(O)COC2)cc(C(C)C)c1CC(=O)N=S(N)(=O)c1ncc(C(C)(C)O)s1` (centres unmarked) [Example 93, N-(amino(5-(2-hydroxypropan-2-yl)thiazol-2-yl)(oxo)-λ^6-sulfaneylidene)-2-(4-(3-hydroxyoxetan-3-yl)-2,6-diisopropylphenyl)acetamide]: greater than 30 µM. With `CC(C)c1cc(C2(F)COC2)cc(C(C)C)c1CC(=O)N=S(N)(=O)c1ncc(C(C)(C)O)s1` (centres unmarked) [Example 94, N-(amino(5-(2-hydroxypropan-2-yl)thiazol-2-yl)(oxo)-λ^6-sulfaneylidene)-2-(4-(3-fluorooxetan-3-yl)-2,6-diisopropylphenyl)acetamide], the half-maximal inhibitory concentration (IC50) (class symbols) fell in the range of 1 to 5 µM. As for `CCCc1cc(F)cc(CCC)c1CC(=O)N=S(N)(=O)c1cnc(C(C)(C)O)s1` (centres unmarked) [Example 95, N-(amino(2-(2-hydroxypropan-2-yl)thiazol-5-yl)(oxo)-λ^6-sulfaneylidene)-2-(4-fluoro-2,6-dipropylphenyl)acetamide], under “class symbols”, the half-maximal inhibitory concentration (IC50) fell in the range of 0.2 to 1 µM. As for `CC(C)c1cc(F)cc(C(C)C)c1C(C)C(=O)N=S(N)(=O)c1cnc(C(C)(C)O)s1` (centres unmarked) [Example 96, N-(amino(2-(2-hydroxypropan-2-yl)thiazol-5-yl)(oxo)-λ^6-sulfaneylidene)-2-(4-fluoro-2,6-diisopropylphenyl)propanamide], the concentration for half-maximal inhibition (IC50) (given as numeric bound) was greater than 30 µM. As for `CC(C)c1cc(-c2ccc3c(c2)COCC3)cc(C(C)C)c1CC(=O)N=S(N)(=O)c1cnc(C(C)(C)O)s1` (centres unmarked) [Example 97, N-(amino(2-(2-hydroxypropan-2-yl)thiazol-5-yl)(oxo)-λ^6-sulfaneylidene)-2-(4-(isochroman-7-yl)-2,6-diisopropylphenyl)acetamide], the IC50 (class symbols) lay within 0.2 to 1 µM.

Take `CC(C)(O)c1ncc(S(N)(=O)=NC(=O)Cc2c(C3CC3)cc(F)cc2C(F)(F)F)s1` (centres unmarked) [Example 98]: the IC50 (class symbols) was in the range of 5 to 30 µM. `CC(C)c1nc(-c2cccc(C(F)(F)F)c2)c(F)c(C(C)C)c1CC(=O)N=S(=O)(NC(=O)OC(C)(C)C)c1cnc(C(C)(C)O)s1` (centres unmarked) [Example 99, tert-butyl (N-(2-(5-fluoro-2,4-diisopropyl-6-(3-(trifluoromethyl)phenyl)pyridin-3-yl)acetyl)-2-(2-hydroxypropan-2-yl)thiazole-5-sulfonimidoyl)carbamate]: for the setting “class symbols”, the IC50 lay in the range of 1 to 5 µM. The same measure, in the same setting: next, `CC(C)c1nc(-c2cccc(C(F)(F)F)c2)c(F)c(C(C)C)c1CC(=O)N=S(N)(=O)c1cnc(C(C)(C)O)s1` (centres unmarked) [Example 100]: 0.2 to 1 µM.

In the case of `CC(C)c1ncc(F)c(C(C)C)c1CC(=O)N=S(N)(=O)c1ccc(CN(C)C)cc1` (centres unmarked) [Example 101, N-(amino(4-((dimethylamino)methyl)phenyl)(oxo)-λ^6-sulfaneylidene)-2-(5-fluoro-2,4-diisopropylpyridin-3-yl)acetamide], the IC50 (class symbols) is 5 to 30 µM.

On to `CC(C)c1cc(F)cc(C2CCOC2)c1CC(=O)N=S(N)(=O)c1cnc(C(C)(C)O)s1` (centres unmarked) [Example 102, N-(amino(2-(2-hydroxypropan-2-yl)thiazol-5-yl)(oxo)-λ^6-sulfaneylidene)-2-(4-fluoro-2-isopropyl-6-(tetrahydrofuran-3-yl)phenyl)acetamide], for which the IC50 (class symbols) fell in the range of 5 to 30 µM. As for `CC(C)c1ccc(F)c(C(C)C)c1CC(=O)N=S(N)(=O)c1cnc(C(C)(C)O)s1` (centres unmarked) [Example 103, N-(amino(2-(2-hydroxypropan-2-yl)thiazol-5-yl)(oxo)-λ^6-sulfaneylidene)-2-(3-fluoro-2,6-diisopropylphenyl)acetamide], the IC50 (class symbols) fell in the range of 0.2 to 1 µM.

As to `CC(C)c1c(F)c(Cl)cc(C2CC2)c1CC(=O)N=S(N)(=O)c1cnc(C(C)(C)O)s1` (centres unmarked) [Example 104, N-(amino(2-(2-hydroxypropan-2-yl)thiazol-5-yl)(oxo)-λ^6-sulfaneylidene)-2-(4-chloro-6-cyclopropyl-3-fluoro-2-isopropylphenyl)acetamide], the IC50 (class symbols) lay within 0.2 to 1 µM. On the same count and under the same terms, as for `COCc1cc(C(C)C)c(CC(=O)N=S(N)(=O)c2cc(C(C)(C)O)cs2)c(C(C)C)c1` (centres unmarked) [Example 105, N-(amino(4-(2-hydroxypropan-2-yl)thiophen-2-yl)(oxo)-λ^6-sulfaneylidene)-2-(2,6-diisopropyl-4-(methoxymethyl)phenyl) acetamide], the figure is 0.04 to 0.2 µM; as for `CC(C)c1ccc(F)c(C(C)C)c1CC(=O)N=S(N)(=O)c1cc(C(C)(C)O)cs1` (centres unmarked) [Example 106, N-(amino(4-(2-hydroxypropan-2-yl)thiophen-2-yl)(oxo)-λ^6-sulfaneylidene)-2-(3-fluoro-2,6-diisopropylphenyl)acetamide], 0.04 to 0.2 µM.

On to `CC(C)c1cc(-n2cccn2)cc(C(C)C)c1CC(=O)N=S(N)(=O)c1cnc(C(C)(C)O)s1` (centres unmarked) [Example 107, N-(amino(2-(2-hydroxypropan-2-yl)thiazol-5-yl)(oxo)-λ^6-sulfaneylidene)-2-(2,6-diisopropyl-4-(1H-pyrazol-1-yl)phenyl)acetamide], for which the IC50 (class symbols) is 5 to 30 µM. On the same count and under the same terms, next, `COCc1cc(C(C)C)c(CC(=O)N=S(N)(=O)c2cnc(C(C)(C)O)s2)c(C(C)C)c1` (centres unmarked) [Example 108, N-(amino(2-(2-hydroxypropan-2-yl)thiazol-5-yl)(oxo)-λ^6-sulfaneylidene)-2-(2,6-diisopropyl-4-(methoxymethyl)phenyl) acetamide]: 0.04 to 0.2 µM; `COCc1cc(C(C)C)c(CC(=O)N=S(N)(=O)c2cnc(C(C)(C)O)s2)c(C(C)C)c1F` (centres unmarked) [Example 109, N-(amino(2-(2-hydroxypropan-2-yl)thiazol-5-yl)(oxo)-λ^6-sulfaneylidene)-2-(3-fluoro-2,6-diisopropyl-4-(methoxymethyl)phenyl) acetamide]: 0.04 to 0.2 µM; `CC(C)c1cc(-c2ccc3ccccc3c2)cc(C(C)C)c1CC(=O)N=S(N)(=O)c1ncc(C(C)(C)O)s1` (centres unmarked) [Example 110, N-(amino(5-(2-hydroxypropan-2-yl)thiazol-2-yl)(oxo)-λ^6-sulfaneylidene)-2-(2,6-diisopropyl-4-(naphthalen-2-yl)phenyl)acetamide]: 0.2 to 1 µM. Still for that read-out and setting: as for `COCc1cc(C(C)C)c(CC(=O)N=S(N)(=O)c2ncc(C(C)(C)O)s2)c(C(C)C)c1` (centres unmarked) [Example 111, N-(amino(5-(2-hydroxypropan-2-yl)thiazol-2-yl)(oxo)-λ^6-sulfaneylidene)-2-(2,6-diisopropyl-4-(methoxymethyl)phenyl) acetamide], the figure is 0.04 to 0.2 µM. Still for that read-out and setting: as for `CC(C)c1cc(-c2ccc(Cl)c(Cl)c2)cc(C(C)C)c1CC(=O)N=S(N)(=O)c1cnc(C(C)(C)O)s1` (centres unmarked) [Example 112, N-(amino(2-(2-hydroxypropan-2-yl)thiazol-5-yl)(oxo)-λ^6-sulfaneylidene)-2-(3′,4′-dichloro-3,5-diisopropyl-[1,1′-biphenyl]-4-yl)acetamide], the figure is 0.2 to 1 µM; as for `CC(C)c1cc(-c2ccc3ccccc3c2)cc(C(C)C)c1CC(=O)N=S(N)(=O)c1cnc(C(C)(C)O)s1` (centres unmarked) [Example 113, N-(amino(2-(2-hydroxypropan-2-yl)thiazol-5-yl)(oxo)-λ^6-sulfaneylidene)-2-(2,6-diisopropyl-4-(naphthalen-2-yl)phenyl)acetamide], 0.008 to 0.04 µM. With `CC(C)c1ccc(C#N)c(C(C)C)c1CC(=O)N=S(N)(=O)c1cnc(C(C)(C)O)s1` (centres unmarked) [Example 114, N-(amino(2-(2-hydroxypropan-2-yl)thiazol-5-yl)(oxo)-λ^6-sulfaneylidene)-2-(3-cyano-2,6-diisopropylphenyl)acetamide], the IC50 (class symbols) is 1 to 5 µM. For `CC(C)c1c(F)c(C#N)cc(C2CC2)c1CC(=O)N=S(N)(=O)c1sc(C(C)(C)O)nc1CO` (centres unmarked) [Example 115, N-(amino(4-(hydroxymethyl)-2-(2-hydroxypropan-2-yl)thiazol-5-yl)(oxo)-λ^6-sulfaneylidene)-2-(4-cyano-6-cyclopropyl-3-fluoro-2-isopropylphenyl)acetamide], the IC50 (class symbols) fell in the range of 0.2 to 1 µM. On the same count and under the same terms, as for `COc1ccc2cc(-c3cc(C(C)C)c(CC(=O)N=S(N)(=O)c4cnc(C(C)(C)O)s4)c(C(C)C)c3)ccc2c1` (centres unmarked) [Example 116, N-(amino(2-(2-hydroxypropan-2-yl)thiazol-5-yl)(oxo)-λ^6-sulfaneylidene)-2-(2,6-diisopropyl-4-(6-methoxynaphthalen-2-yl)phenyl)acetamide], the figure is 5 to 30 µM; as for `CC(C)c1cc(-c2ccc3c(c2)OC(F)(F)O3)cc(C(C)C)c1CC(=O)N=S(N)(=O)c1ncc(C(C)(C)O)s1` (centres unmarked) [Example 117, N-(amino(5-(2-hydroxypropan-2-yl)thiazol-2-yl)(oxo)-λ^6-sulfaneylidene)-2-(4-(2,2-difluorobenzo[d][1,3]dioxol-5-yl)-2,6-diisopropylphenyl)acetamide], 0.04 to 0.2 µM.

For the molecule `CC(C)c1cc(-c2ccc3c(c2)OC(F)(F)O3)cc(C(C)C)c1CC(=O)N=S(N)(=O)c1cnc(C(C)(C)O)s1` (centres unmarked) [Example 118, N-(amino(2-(2-hydroxypropan-2-yl)thiazol-5-yl)(oxo)-λ^6-sulfaneylidene)-2-(4-(2,2-difluorobenzo[d][1,3]dioxol-5-yl)-2,6-diisopropylphenyl)acetamide], the half-maximal inhibitory concentration (IC50) (class symbols) was 0.2 to 1 µM.
